Test results: PMC7570671, “Synthesis and Biological Evaluation of Novel Benodanil-Heterocyclic Carboxamide Hybrids as a Potential Succinate Dehydrogenase Inhibitors” (Molecules, 2020)
pIC50: −log10 of the molar value.

Target: T1, succinate dehydrogenase (SDH) from mitochondria of R. solani (Rhizoctonia solani, UniProt A0A0K6FYZ3+A0A0K6G4J6+A0A0K6G6J3)
T1 construct: gene sdhB; native complex II in isolated mitochondria, not purified; with Succinate dehydrogenase [ubiquinone] flavoprotein subunit, mitochondrial
Assay: succinate:ubiquinone/DCPIP reductase inhibition in isolated mitochondria, absorbance at […] nm
Assay type: biochemical

T1 sequence (A0A0K6FYZ3 29-278): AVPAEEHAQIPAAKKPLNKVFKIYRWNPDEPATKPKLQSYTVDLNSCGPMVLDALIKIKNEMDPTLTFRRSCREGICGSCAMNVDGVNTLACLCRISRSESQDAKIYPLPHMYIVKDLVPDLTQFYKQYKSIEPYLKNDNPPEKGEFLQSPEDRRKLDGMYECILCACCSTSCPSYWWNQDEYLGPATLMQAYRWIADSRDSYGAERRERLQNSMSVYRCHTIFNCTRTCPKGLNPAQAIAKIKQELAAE
T1 sequence (A0A0K6G4J6 37-154): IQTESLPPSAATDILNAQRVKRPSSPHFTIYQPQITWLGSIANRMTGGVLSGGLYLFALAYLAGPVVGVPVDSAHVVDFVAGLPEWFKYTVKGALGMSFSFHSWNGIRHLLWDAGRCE
T1 sequence (A0A0K6G6J3 32-176): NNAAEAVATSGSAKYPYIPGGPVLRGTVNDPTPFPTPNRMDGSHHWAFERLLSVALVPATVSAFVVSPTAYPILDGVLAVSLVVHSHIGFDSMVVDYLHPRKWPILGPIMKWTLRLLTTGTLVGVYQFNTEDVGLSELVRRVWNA
T1 sequence (A0A0K6G1V0 48-643 partner): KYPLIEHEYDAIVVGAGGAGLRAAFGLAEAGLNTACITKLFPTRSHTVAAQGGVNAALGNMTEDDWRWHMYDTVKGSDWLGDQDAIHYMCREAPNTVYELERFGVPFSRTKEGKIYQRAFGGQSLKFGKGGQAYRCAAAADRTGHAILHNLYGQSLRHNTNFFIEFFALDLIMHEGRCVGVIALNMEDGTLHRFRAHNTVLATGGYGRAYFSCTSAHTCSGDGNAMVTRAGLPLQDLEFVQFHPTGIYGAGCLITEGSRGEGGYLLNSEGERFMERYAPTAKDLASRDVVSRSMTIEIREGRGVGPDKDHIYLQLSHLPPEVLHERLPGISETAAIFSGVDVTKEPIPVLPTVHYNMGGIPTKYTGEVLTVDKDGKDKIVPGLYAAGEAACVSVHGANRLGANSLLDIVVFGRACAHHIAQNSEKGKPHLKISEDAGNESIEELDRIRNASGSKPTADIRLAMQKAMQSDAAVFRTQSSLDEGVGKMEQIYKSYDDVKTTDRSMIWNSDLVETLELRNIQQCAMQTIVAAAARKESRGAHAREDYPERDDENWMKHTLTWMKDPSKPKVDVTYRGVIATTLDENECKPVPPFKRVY

Row | Structure (SMILES) | pIC50
1 | O=C(Nc1ccccc1)c1ccccc1I [benodanil] | 3.72
2 | CC(C)c1cccc(NC(=O)c2ccccc2NC(=O)c2cn(C)nc2C(F)F)c1 [compound 17] | 3.89
3 | Cn1cc(C(=O)Nc2ccccc2C(=O)Nc2cccc(C(F)(F)F)c2)c(C(F)F)n1 [compound 18] | 3.89
